From patent US20100119646A1, “Dihydroeugenol as Additive for feed” (DSM IP ASSETS B.V., priority 2007, published 2010)
Where two headings read alike, the source gives them in different places.

Assays:
[1] = assay type: in vivo; settings: for FCR (kg/kg) / Feed intake / DWG / DWG relative to basal diet A (100) / FCR relative to basal diet A (100) / Feed intake relative to basal diet A (100): 400 ppm in diet (mixture 1: 150 ppm); for FCR (kg/kg) / Feed intake: mean ± standard deviation of 3 determinations; for DWG: mean ± standard deviation of 19 determinations; for DWG relative to basal diet A (100) / FCR relative to basal diet A (100) / Feed intake relative to basal diet A (100): value in brackets, control A = (100); for improvement of feed conversion ratio versus controls: 400 ppm in diet
Enterococcus spp = experiment: Gut microflora modulation in vivo, ileo-rectal contents of anastomosed piglets: Enterococcus spp on Enterococci agar; settings: 300 ppm in feed; ten piglets
[2] = system: total facultative anaerobic bacteria; experiment: Gut microflora modulation in vivo, ileo-rectal contents of anastomosed piglets: total facultative anaerobic counts on Brucella agar; settings: 300 ppm in feed; mean CFU per g ileal content dry matter; ten piglets; not significant
[3] = system: total lactic acid bacteria; experiment: Gut microflora modulation in vivo, ileo-rectal contents of anastomosed piglets: lactic acid bacteria on MRS agar; settings: ten piglets
Enterobacteriacae = experiment: Gut microflora modulation in vivo, ileo-rectal contents of anastomosed piglets: Enterobacteriacae on V.R.B.D agar; settings: mean CFU per g ileal content dry matter, ten piglets, not significant; for total Enterobacteriacae counts decreased relative to the control: 300 ppm in feed
Escherichia coli = experiment: Gut microflora modulation in vivo, ileo-rectal contents of anastomosed piglets: Escherichia coli counts; settings: mean CFU per g ileal content dry matter, ten piglets, not significant
Staphylococcus spp = experiment: Gut microflora modulation in vivo, ileo-rectal contents of anastomosed piglets: Staphylococcus spp on Baird Parker agar; settings: 300 ppm in feed; ten piglets
[4] = 300 ppm in feed, mean CFU per g ileal content dry matter, not significant

Row | SMILES | FCR (kg/kg) ([1]; day 0-14) | Feed intake ([1]; day 0-14) | DWG ([1]; day 0-14) | DWG relative to basal diet A (100) ([1]; day 0-14) | FCR relative to basal diet A (100) ([1]; day 0-14) | Feed intake relative to basal diet A (100) ([1]; day 0-14) | FCR (kg/kg) ([1]; day 0-29) | Feed intake ([1]; day 0-29) | DWG ([1]; day 0-29) | DWG relative to basal diet A (100) ([1]; day 0-29) | FCR relative to basal diet A (100) ([1]; day 0-29) | Feed intake relative to basal diet A (100) ([1]; day 0-29) | effect on the population of Enterococcus spp (in words) (Enterococcus spp) | total facultative anaerobic bacteria counts increased relative to the control [2] | total Enterobacteriacae counts decreased relative to the control (Enterobacteriacae) | also measured
1 | Cc1cccc(C)c1O [2,6-dimethylphenol] | 1.886 ± 0.06 kg/kg | 350 ± 5 g/day | 186 ± 45 g | (103) | (99) | (103) | 1.914 ± 0.053 kg/kg | 694 ± 27 g/day | 272 ± 53 g | (105) | (100) | (106) | negative effect | 37% | 68% | effect on the total lactic acid bacteria (in words) ([3]; 300 ppm in feed): neutral effect
2 | Oc1ccc(CC=Cc2ccccc2)cc1 [4-cinnamylphenol] | 1.82 ± 0.058 kg/kg | 345 ± 42 g/day | 193 ± 41 g | (107) | (96) | (102) | 1.953 ± 0.048 kg/kg | 670 ± 72 g/day | 262 ± 53 g | (101) | (102) | (102) |  |  | 36% | Escherichia coli counts decreased relative to the control (Escherichia coli; 300 ppm in feed): 42%; total lactic acid bacteria counts decreased relative to the control [3, 4]: 22%
3 | O=C1/C(=C/c2ccc(O)c(O)c2)Oc2cc(O)cc(O)c21 [aureusidin] | 1.965 ± 0.21 kg/kg | 332 ± 52 g/day | 189 ± 61 g | (104) | (103) | (98) | 1.968 ± 0.018 kg/kg | 686 ± 72 g/day | 275 ± 48 g | (106) | (103) | (104) |  |  |  | Escherichia coli counts decreased relative to the control (Escherichia coli; 150 ppm in feed): 66%; total lactic acid bacteria counts decreased relative to the control ([3]; 150 ppm in feed, mean CFU per g ileal content dry matter, not significant): 17%; Enterobacteriacae counts decreased relative to the control (Enterobacteriacae; 150 ppm in feed): 30%
4 | CCCc1ccc(O)c(OC)c1 [dihydroeugenol, 2-methoxy-4-propylphenol] | 1.776 ± 0.034 kg/kg | 364 ± 46 g/day | 208 ± 39 g | (115) | (93) | (107) | 1.88 ± 0.08 kg/kg | 708 ± 85 g/day | 285 ± 33 g | (110) | (98) | (108) | neutral effect | 12% | 67% | improvement of feed conversion ratio versus controls ([1]; first 14 days of the experiment): 7%; improvement of feed conversion ratio versus controls ([1]; whole observation period (29 days)): 2%; improvement of the daily weight gain comparatively to the non supplemented control ([1]; whole observation period (29 days), dihydroeugenol 400 ppm, mixture 1 150 ppm): 10%; effect on the population of Staphylococcus spp (in words) (Staphylococcus spp): neutral effect; total lactic acid bacteria counts increased relative to the control [3, 4]: 26%
